# What was measured:
# mPTP [1] = test: mPTP activity (Ca2+ retention) assay in isolated rat liver mitochondria; format: biochemical; conditions: examples tested by different contract research organisations, believed comparable
# Outline: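 pIC50 was taken from Fluo5N fluorescence at 10 min after a 75 μM CaCl2 bolus, scaled between DMSO (0%) and 5 μM cyclosporin A (100%). Compounds, ten half-log concentrations from 30 μM to 1 nM final, sat 10 min at RT with fresh female Sprague Dawley rat liver mitochondria energized by succinate plus rotenone.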
# mPTP [2] = test: mPTP activity assay in isolated rat brain mitochondria; format: biochemical; conditions: fluorescence at 10 min timepoint
# Procedure: MPTP activity was measured in brain mitochondria freshly isolated from female Sprague Dawley (250 to 300 gram) rats. Anaesthetised rats were perfused in-situ with −40 ml cold Dulbecco's Phosphate Buffered Saline (DPBS), then brains dissected and transferred into 30 ml Isolation Buffer (225 mM mannitol, 75 mM sucrose, 1 mM EGTA, adjusted to pH 7.4 with 1M NaOH). The brain was minced using tweezers and a scalpel into −5 mm pieces then transferred into a 50 ml Potterton Dounce homogenization tube on ice containing 10 ml ice-cold isolation buffer (as above with addition of Complete Protease inhibitor; 1 tablet per 50 ml buffer). Homogenisation was carried out using a teflon pestle at 1800 rpm. The slurry was centrifuged at 2000 g for 10 min at 4° C., then the supernatant centrifuged at 12,000 g for 9 min. The pellet was resuspended with a dounce homogeniser in isolation buffer as above but with the addition of 0.02% digitonin, centrifuged at 12,000 g for 11 min and finally resuspended in 5 ml modified isolation buffer (as above but with EGTA reduced to 0.1 mM).
# Test compounds were prepared in 384 well polypropylene assay plates as described above for the liver mitochondria assay. A stock mitochondria/Fluo5N assay solution was prepared in 5.6 ml assay buffer (120 mM mannitol, 40 mM MOPS, 5 mM KH2PO4, 60 mM KCl, 10 mM pyruvate, 2 mM malate, 2 mM MgCl2, 20 μM ADP, 1.26 μM oligomycin A, adjusted to pH 7.4) supplemented with Fluo5N pentapotassium salt (2 μM) and 1 ml mitochondria suspension, then transferred (15 μl) into the assay plate containing test compounds and incubated for 10 min at RT. Assay plates were then transferred to a FLIPR Tetra plate reader (Molecular Devices). Dye fluorescence was then measured every 3 sec for a total of 10 min.
Structure (SMILES),mPTP Rat liver pIC50 (mPTP [1]),mPTP Rat brain pIC50 (mPTP [2])
"O=C(NCC1(Cc2ccccc2F)CCC1)c1cncc(O)n1 [Example 13, N-((1-(2-fluorobenzyl)cyclobutyl)methyl)-6-hydroxypyrazine-2-carboxamide]",5.33,7.74
"CCn1nc(C(=O)NCC2(Cc3ccccc3)CCC2)[nH]c1=O [Example 14, N-((1-benzylcyclobutyl)methyl)-1-ethyl-5-oxo-4,5-dihydro-1H-1,2,4-triazole-3-carboxamide]",5.63,6.94
"O=C(NCC1(Cc2c(F)cccc2F)CCC1)c1cncc(=O)[nH]1 [Example 15, N-((1-(2,6-difluorobenzyl)cyclobutyl)methyl)-6-oxo-1,6-dihydropyrazine-2-carboxamide]",5.92,7.65
"O=C(NCC1(Cc2cccc(F)c2F)CCC1)c1cncc(=O)[nH]1 [Example 17, N-((1-(2,3-difluorobenzyl)cyclobutyl)methyl)-6-oxo-1,6-dihydropyrazine-2-carboxamide]",6.05,6.96
"O=C(NCC1(Cc2ccccc2)CCCC1)c1cncc(=O)[nH]1 [Example 18, N-((1-benzylcyclopentyl)methyl)-6-oxo-1,6-dihydropyrazine-2-carboxamide]",5.55,7.04
"Cc1ccccc1CC1(CNC(=O)c2cncc(=O)[nH]2)CCC1 [Example 19, N-((1-(2-methylbenzyl)cyclobutyl)methyl)-6-oxo-1,6-dihydropyrazine-2-carboxamide]",5.41,7.35
"Cn1nc(C(=O)NCC2(Cc3ccccc3F)CCC2)[nH]c1=O [Example 20, N-((1-(2-fluorobenzyl)cyclobutyl)methyl)-1-methyl-5-oxo-4,5-dihydro-1H-1,2,4-triazole-3-carboxamide]",6.44,7.55
"Cn1nc(C(=O)NCC2(Cc3c(F)cccc3F)CCC2)[nH]c1=O [Example 21, N-((1-(2,6-difluorobenzyl)cyclobutyl)methyl)-1-methyl-5-oxo-4,5-dihydro-1H-1,2,4-triazole-3-carboxamide]",6.09,7.63
"CC(NC(=O)c1nn(C)c(=O)[nH]1)C1(Cc2ccccc2)CCC1 (stereo not drawn) [Example 23, N-(1-(1-benzylcyclobutyl)ethyl)-1-methyl-5-oxo-4,5-dihydro-1H-1,2,4-triazole-3 carboxamide]",6.64,7.37
"CC(c1ccccc1)C1(CNC(=O)c2nn(C)c(=O)[nH]2)CCC1 (stereo not drawn) [Example 25, 1-methyl-5-oxo-N-((1-(1-phenylethyl)cyclobutyl)methyl)-4,5-dihydro-1H-1,2,4-triazole-3-carboxamide]",6.42,7.37
"COC(c1ccccc1)C1(CNC(=O)c2nn(C)c(=O)[nH]2)CCC1 (stereo not drawn) [Example 28, N-((1-(methoxy(phenyl)methyl)cyclobutyl)methyl)-1-methyl-5-oxo-4,5-dihydro-1H-1,2,4-triazole-3-carboxamide]",5.96,6.73
"Cc1ccccc1CC1(CNC(=O)c2nn(C)c(=O)[nH]2)CCC1 [Example 29, 1-methyl-N-((1-(2-methylbenzyl)cyclobutyl)methyl)-5-oxo-4,5-dihydro-1H-1,2,4-triazole-3-carboxamide]",6.34,7.84
"Cn1nc(C(=O)NCC2(Cc3ccccc3Cl)CCC2)[nH]c1=O [Example 30, N-((1-(2-chlorobenzyl)cyclobutyl)methyl)-1-methyl-5-oxo-4,5-dihydro-1H-1,2,4-triazole-3-carboxamide]",6.20,7.63
"Cn1nc(C(=O)NCC(C)(C)Cc2ccccc2)[nH]c1=O [Example 31, N-(2,2-dimethyl-3-phenylpropyl)-1-methyl-5-oxo-4,5-dihydro-1H-1,2,4-triazole-3-carboxamide]",6.48,7.37
"CC(CNC(=O)c1nn(C)c(=O)[nH]1)Cc1ccccc1 (stereo not drawn) [Example 32, 1-methyl-N-(2-methyl-3-phenylpropyl)-5-oxo-4,5-dihydro-1H-1,2,4-triazole-3-carboxamide]",5.76,6.79
"Cn1nc(C(=O)NCC2(Cc3ccccc3)CC2)[nH]c1=O [Example 33, N-((1-benzylcyclopropyl)methyl)-1-methyl-5-oxo-4,5-dihydro-1H-1,2,4-triazole-3-carboxamide]",5.63,6.51
"CCC(NC(=O)c1nn(C)c(=O)[nH]1)C(C)(C)Cc1ccccc1 (stereo not drawn) [Example 34, N-(2,2-dimethyl-1-phenylpentan-3-yl)-1-methyl-5-oxo-4,5-dihydro-1H-1,2,4-triazole-3-carboxamide]",5.82,7.32
"Cn1nc(C(=O)NC(C(F)(F)F)C(C)(C)Cc2ccccc2)[nH]c1=O (stereo not drawn) [Example 35, 1-methyl-5-oxo-N-(1,1,1-trifluoro-3,3-dimethyl-4-phenylbutan-2-yl)-4,5-dihydro-1H-1,2,4-triazole-3-carboxamide]",5.23,6.86
"Cn1nc(C(=O)NCC(C)(C)Cc2ccccc2Br)[nH]c1=O [Example 36, N-(3-(2-bromophenyl)-2,2-dimethylpropyl)-1-methyl-5-oxo-4,5-dihydro-1H-1,2,4-triazole-3-carboxamide]",5.28,7.05
"Cn1nc(C(=O)NCC2(Cc3ccccc3Br)CCC2)[nH]c1=O [Example 37, N-((1-(2-bromobenzyl)cyclobutyl)methyl)-1-methyl-5-oxo-4,5-dihydro-1H-1,2,4-triazole-3-carboxamide]",5.79,7.61
"CC(NC(=O)c1nn(C)c(=O)[nH]1)C(C)(C)Cc1ccccc1 (stereo not drawn) [Example 38, N-(3,3-dimethyl-4-phenylbutan-2-yl)-1-methyl-5-oxo-4,5-dihydro-1H-1,2,4-triazole-3-carboxamide]",6.14,7.30
"CCC(CNC(=O)c1nn(C)c(=O)[nH]1)Cc1ccccc1 (stereo not drawn) [Example 40, N-(2-benzylbutyl)-1-methyl-5-oxo-4,5-dihydro-1H-1,2,4-triazole-3-carboxamide]",6.29,7.50
"Cn1nc(C(=O)NCC(C)(CO)Cc2ccccc2)[nH]c1=O (stereo not drawn) [Example 41, N-(2-benzyl-3-hydroxy-2-methylpropyl)-1-methyl-5-oxo-4,5-dihydro-1H-1,2,4-triazole-3-carboxamide]",5.25,6.38
"CC(O)C(C)(CNC(=O)c1nn(C)c(=O)[nH]1)Cc1ccccc1 (stereo not drawn) [Example 42, N-(2-benzyl-3-hydroxy-2-methylbutyl)-1-methyl-5-oxo-4,5-dihydro-1H-1,2,4-triazole-3-carboxamide]",5.27,6.26
"COC(CNC(=O)c1nn(C)c(=O)[nH]1)Cc1ccccc1 (stereo not drawn) [Example 43, N-(2-methoxy-3-phenylpropyl)-1-methyl-5-oxo-4,5-dihydro-1H-1,2,4-triazole-3-carboxamide]",5.03,6.81
"CCC(C)(CNC(=O)c1nn(C)c(=O)[nH]1)Cc1ccccc1 (stereo not drawn) [Example 44, N-(2-benzyl-2-methylbutyl)-1-methyl-5-oxo-4,5-dihydro-1H-1,2,4-triazole-3-carboxamide]",6.23,7.41
"O=C(NCC1(Cc2ccccc2)CCCCC1)c1cncc(=O)[nH]1 [Example 47, N-((1-benzylcyclohexyl)methyl)-6-oxo-1,6-dihydropyrazine-2-carboxamide]",4.71,6.91

# From patent US12491185B2, “Inhibitors of mPTP” (NRG Therapeutics Ltd, priority 2023, dated 2025)
